# Reference: patent US11780845B2 (Relay Therapeutics, Inc., priority 2019, dated 2023)
# How the values were obtained:
# FGFR2 = FGFR2 (Homo sapiens (Human), UniProt P21802); assay: FGFR2 Biochemical Caliper Assay
# Description: Compounds of the present invention were also tested in a FGFR2 Biochemical Caliper Assay. Compounds were prepared in 10 mM DMSO solution and serially diluted into 11 concentrations by 3-fold dilution. […] 5 uL of ATP solution (100 uM) was added to start the reaction and the plate was incubated for 90 minutes, then 70 uL of stopping buffer (0.5M EDTA) was added to terminate the reaction. Each well was analyzed using EZ reader.
# SNU16 cells = assay: SNU16 Cancer Cell Line Proliferation Assay; assay type: cell-based; conditions: Homo sapiens; SNU-16 cells
# Outline: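 SNU16 cells were seeded, held 24 h at 37 degrees, then dosed with an 11-point 3-fold dilution series prepared from a 10 mM DMSO stock. After 96 h incubation, viability was read by CellTiter Glo luminescence.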
# Sequence of FGFR2 (P21802 22-821): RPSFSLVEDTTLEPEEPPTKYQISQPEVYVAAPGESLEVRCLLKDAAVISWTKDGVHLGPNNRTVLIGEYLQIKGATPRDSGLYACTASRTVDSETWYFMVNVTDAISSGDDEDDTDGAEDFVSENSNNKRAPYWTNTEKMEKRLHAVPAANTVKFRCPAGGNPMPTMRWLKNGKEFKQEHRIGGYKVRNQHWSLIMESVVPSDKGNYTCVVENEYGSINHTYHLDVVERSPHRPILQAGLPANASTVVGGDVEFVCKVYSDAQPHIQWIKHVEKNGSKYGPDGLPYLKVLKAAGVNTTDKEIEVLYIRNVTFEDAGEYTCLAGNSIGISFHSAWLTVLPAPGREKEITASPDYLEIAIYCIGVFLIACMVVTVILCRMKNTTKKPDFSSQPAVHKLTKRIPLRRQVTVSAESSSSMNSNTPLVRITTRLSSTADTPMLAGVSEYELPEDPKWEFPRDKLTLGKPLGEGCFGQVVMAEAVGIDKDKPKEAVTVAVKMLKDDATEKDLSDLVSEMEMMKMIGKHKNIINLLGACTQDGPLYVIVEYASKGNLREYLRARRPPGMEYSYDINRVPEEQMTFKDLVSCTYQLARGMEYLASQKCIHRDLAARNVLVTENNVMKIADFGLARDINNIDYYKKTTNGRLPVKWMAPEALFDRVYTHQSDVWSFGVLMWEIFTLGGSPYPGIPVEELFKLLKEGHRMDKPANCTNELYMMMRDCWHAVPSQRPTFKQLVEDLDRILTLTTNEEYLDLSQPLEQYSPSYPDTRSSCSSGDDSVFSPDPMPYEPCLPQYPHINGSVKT
IC50 (FGFR2) [nM],IC50 (SNU16 cells) [nM],SMILES
100 to 250,≤ 100,C=CC(=O)N1CCC(c2c(-c3ccc(OC4CC4)cc3)c3c(N)ncnc3n2C)C1 (stereo not shown) [Example 756]
1000 to 100000,1000 to 100000,C=CC(=O)N1CCC(c2c(-c3csc(CN4CCOCC4)c3)c3c(N)ncnc3n2C)C1 (stereo not shown) [Example 757]
< 100,≤ 100,C=CC(=O)N1CCC(c2c(-c3ccc(OC4CCC4)cc3)c3c(N)ncnc3n2C)C1 (stereo not shown) [Example 758]
250 to 1000,250 to 1000,C=CC(=O)N1CCC(c2c(-c3ccc(Oc4ccc(C(F)(F)F)cn4)cc3)c3c(N)ncnc3n2C)C1 (stereo not shown) [Example 759]
< 100,≤ 100,C=CC(=O)N1CCC(c2c(-c3ccc(C(=O)c4ccccc4)cc3)c3c(N)ncnc3n2C)C1 (stereo not shown) [Example 760]
100 to 250,100 to 250,C=CC(=O)N1CCC(c2c(-c3ccc(C(=O)C4CC4)cc3)c3c(N)ncnc3n2C)C1 (stereo not shown) [Example 761]
1000 to 100000,1000 to 100000,C=CC(=O)N1CCC(c2c(-c3ccc(C4CCC(=O)N4)cc3)c3c(N)ncnc3n2C)C1 (stereo not shown) [Example 762]
250 to 1000,250 to 1000,C=CC(=O)N1CCC(c2c(-c3ccc(CN4CCCC4)cc3)c3c(N)ncnc3n2C)C1 (stereo not shown) [Example 763]
1000 to 100000,1000 to 100000,C=CC(=O)N1CCC(c2c(-c3ccc(CC(=O)N(C)C)cc3)c3c(N)ncnc3n2C)C1 (stereo not shown) [Example 764]
< 100,1000 to 100000,C=CC(=O)N1CCC(c2c(-c3ccc(-c4ncc[nH]4)cc3)c3c(N)ncnc3n2C)C1 (stereo not shown) [Example 765]
250 to 1000,250 to 1000,C=CC(=O)N1CCC(c2c(-c3ccc(-c4cnn(C)c4)cc3)c3c(N)ncnc3n2C)C1 (stereo not shown) [Example 766]
250 to 1000,100 to 250,C=CC(=O)N1CCC(c2c(-c3ccc(-c4noc(C)n4)cc3)c3c(N)ncnc3n2C)C1 (stereo not shown) [Example 767]
250 to 1000,100 to 250,C=CC(=O)N1CCC(c2c(-c3ccc(-c4ccno4)cc3)c3c(N)ncnc3n2C)C1 (stereo not shown) [Example 768]
< 100,≤ 100,C=CC(=O)Nc1ccc(-c2[nH]c3ncnc(N)c3c2-c2ccc(Oc3cccc(C)n3)cc2)cc1 [Example 769]
1000 to 100000,1000 to 100000,C=CC(=O)N1CCC(c2c(-c3ccc(NC4CCCC4)cc3)c3c(N)ncnc3n2C)C1 (stereo not shown) [Example 771]
< 100,≤ 100,C=CC(=O)N1CCC(c2c(-c3ccc(Cn4cccn4)cc3)c3c(N)ncnc3n2C)C1 (stereo not shown) [Example 772]
1000 to 100000,1000 to 100000,C=CC(=O)N1CCC(c2c(-c3ccc(NC4CCOCC4)cc3)c3c(N)ncnc3n2C)C1 (stereo not shown) [Example 773]
1000 to 100000,1000 to 100000,CC#CC(=O)N1CCC(c2[nH]c3ncnc(N)c3c2-c2ccc(C(=O)N3CCCC3)cc2)C1 (stereo not shown) [Example 774]
100 to 250,1000 to 100000,C=CC(=O)N1CCC(c2[nH]c3ncnc(N)c3c2-c2ccc(Oc3ccc(C)cn3)cc2)C1 (stereo not shown) [Example 775]
< 100,≤ 100,C=CC(=O)N1CCC(c2c(-c3ccc(Cn4ccc(C)n4)cc3)c3c(N)ncnc3n2C)C1 (stereo not shown) [Example 776]
1000 to 100000,1000 to 100000,C=CC(=O)N(C)c1ccc(-c2[nH]c3ncnc(N)c3c2-c2ccc(Oc3cccc(C)n3)cc2)cc1 [Example 777]

IC50 (FGFR2) [nM],IC50 (SNU16 cells) [nM],SMILES
< 100,≤ 100,C=CC(=O)N1CCC(c2c(-c3cnn(-c4cccnc4)c3)c3c(N)ncnc3n2C)C1 (stereo not shown) [Example 778]
1000 to 100000,1000 to 100000,C=CC(=O)N1CCC(c2c(-c3cnn(-c4ccccn4)c3)c3c(N)ncnc3n2C)C1 (stereo not shown) [Example 779]
250 to 1000,250 to 1000,C=CC(=O)N1CCC(c2c(-c3cnn(CC4CCN(C(C)=O)CC4)c3)c3c(N)ncnc3n2C)C1 (stereo not shown) [Example 780]
1000 to 100000,1000 to 100000,C=CC(=O)N1CCC(c2c(C3=CCC(CO)CC3)c3c(N)ncnc3n2C)C1 (stereo not shown) [Example 781]
1000 to 100000,1000 to 100000,C=CC(=O)N1CCC(c2c(-c3ccc(OC4CNC4)cc3)c3c(N)ncnc3n2C)C1 (stereo not shown) [Example 782]
100 to 250,1000 to 100000,C=CC(=O)N1CCC(c2c(C3=CCN(C(C)=O)CC3(C)C)c3c(N)ncnc3n2C)C1 (stereo not shown) [Example 783]
1000 to 100000,1000 to 100000,C=CC(=O)N1CCC(c2c(-c3ccc(C(=O)C4CCCC4)cc3)c3c(N)ncnc3n2C)C1 (stereo not shown) [Example 784]
< 100,≤ 100,C=CC(=O)N1CCC(c2c(-c3ccc(S(=O)(=O)C4CC4)cc3)c3c(N)ncnc3n2C)C1 (stereo not shown) [Example 785]
250 to 1000,1000 to 100000,C=CC(=O)Nc1ccc(-c2[nH]c3ncnc(N)c3c2-c2ccc(C(=O)N3CCCC3)cc2)cc1 [Example 786]
< 100,≤ 100,CC#CC(=O)Nc1ccc(-c2[nH]c3ncnc(N)c3c2-c2ccc(Oc3cccc(C)n3)c(OC)c2)cc1 [Example 787]
< 100,≤ 100,C=C(C)C(=O)Nc1ccc(-c2[nH]c3ncnc(N)c3c2-c2ccc(Oc3cccc(C)n3)c(OCC)c2)cc1 [Example 788]
1000 to 100000,1000 to 100000,C=CC(=O)N1CCC(c2c(-c3ccc(CN4CCOCC4=O)cc3)c3c(N)ncnc3n2C)C1 (stereo not shown) [Example 789]
250 to 1000,1000 to 100000,C=CC(=O)N1CCC(c2c(-c3ccc(C(O)C4CC4)cc3)c3c(N)ncnc3n2C)C1 (stereo not shown) [Example 790]
250 to 1000,250 to 1000,C=CC(=O)N1CCC(c2c(-c3ccc(N(C)C4CCOCC4)cc3)c3c(N)ncnc3n2C)C1 (stereo not shown) [Example 791]
100 to 250,100 to 250,C=CC(=O)N1CCC(c2c(-c3ccn(Cc4ccccc4)c(=O)c3)c3c(N)ncnc3n2C)C1 (stereo not shown) [Example 792]
250 to 1000,1000 to 100000,C=CC(=O)N1CCC(c2c(-c3cnn(C4CNC4)c3)c3c(N)ncnc3n2C)C1 (stereo not shown) [Example 793]
1000 to 100000,1000 to 100000,C=CC(=O)N1CCC(c2c(-c3ccc(Cn4ccccc4=O)cc3)c3c(N)ncnc3n2C)C1 (stereo not shown) [Example 794]
1000 to 100000,1000 to 100000,C=C(C)C(=O)Nc1ccc(-c2cn3ncnc(N)c3c2-c2ccc(Oc3cccc(C)n3)cc2)cc1 [Example 795]
< 100,≤ 100,C=C(C)C(=O)Nc1ccc(-c2[nH]c3ncnc(N)c3c2-c2ccc(C(=O)N3CCCC3)cc2)cc1 [Example 796]
250 to 1000,250 to 1000,C=CC(=O)N1CCC(c2c(-c3ccc(CN4CCCS4(=O)=O)cc3)c3c(N)ncnc3n2C)C1 (stereo not shown) [Example 797]
